Tests used:
Assay in all cases: relative viability (nuclei count vs DMSO), 5 days (fraction); higher = more cells survive
[1] = tested on: A549
Method in brief: (§1)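 Relative viability divides the nuclei count in treated wells by that in vehicle wells. Lung cancer cell lines were seeded in 1536-well plates, dosed by pin tool the next day, and fixed and stained after 5 days in one step with final 0.05% Triton X-100, 1% formaldehyde and 1 ug/ml Hoechst. Dosing was a single drug or a fixed anchor-drug dose plus five library-drug doses (not always all listed) in √10 steps, and values are medians of duplicate plates imaged at 4×.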

[2] = tested on: COR-L 105
Method in brief: as §1

[3] = tested on: Calu-6
Method in brief: as §1

[4] = tested on: EBC-1
Method in brief: as §1

[5] = tested on: IA-LM
Method in brief: as §1

[6] = tested on: LCLC-103H
Method in brief: as §1

[7] = tested on: LK-2
Method in brief: as §1

[8] = tested on: NCI-H1299
Method in brief: as §1

[9] = tested on: NCI-H1355
Method in brief: as §1

[10] = tested on: NCI-H1666
Method in brief: as §1

[11] = tested on: NCI-H1703
Method in brief: as §1

[12] = tested on: NCI-H520
Method in brief: as §1

## Cc1sc2c(c1C)C(c1ccc(Cl)cc1)=N[C@@H](CC(=O)OC(C)(C)C)c1nnc(C)n1-2 [JQ1] + C[C@]1(O)C[C@@H](c2nc(-c3ccc4ccc(-c5ccccc5)nc4c3)c3c(N)nccn32)C1 [Linsitinib] (partner 1 µM)
[1]; first compound 0.04 µM
  relative viability: 0.613
[1]; first compound 0.1265 µM
  relative viability: 0.534
[1]; first compound 0.4 µM
  relative viability: 0.561
[1]; first compound 1.265 µM
  relative viability: 0.314
[1]; first compound 4 µM
  relative viability: 0.226
[2]; first compound 0.04 µM
  relative viability: 0.868
[2]; first compound 0.1265 µM
  relative viability: 0.579
[2]; first compound 0.4 µM
  relative viability: 0.349
[2]; first compound 1.265 µM
  relative viability: 0.299
[2]; first compound 4 µM
  relative viability: 0.319
[3]; first compound 0.04 µM
  relative viability: 0.931
[3]; first compound 0.1265 µM
  relative viability: 0.793
[3]; first compound 0.4 µM
  relative viability: 0.905
[3]; first compound 1.265 µM
  relative viability: 0.639
[3]; first compound 4 µM
  relative viability: 0.313
[4]; first compound 0.04 µM
  relative viability: 0.8
[4]; first compound 0.1265 µM
  relative viability: 0.523
[4]; first compound 0.4 µM
  relative viability: 0.332
[4]; first compound 1.265 µM
  relative viability: 0.112
[4]; first compound 4 µM
  relative viability: 0.112
[5]; first compound 0.04 µM
  relative viability: 0.406
[5]; first compound 0.1265 µM
  relative viability: 0.098
[5]; first compound 0.4 µM
  relative viability: 0.153
[5]; first compound 1.265 µM
  relative viability: 0.106
[5]; first compound 4 µM
  relative viability: 0.0793
[6]; first compound 0.04 µM
  relative viability: 1.01
[6]; first compound 0.1265 µM
  relative viability: 0.751
[6]; first compound 0.4 µM
  relative viability: 0.805
[6]; first compound 1.265 µM
  relative viability: 0.608
[6]; first compound 4 µM
  relative viability: 0.456
[7]; first compound 0.04 µM
  relative viability: 0.393
[7]; first compound 0.1265 µM
  relative viability: 0.662
[7]; first compound 0.4 µM
  relative viability: 0.233
[7]; first compound 1.265 µM
  relative viability: 0.176
[7]; first compound 4 µM
  relative viability: 0.109
[8]; first compound 0.04 µM
  relative viability: 0.97
[8]; first compound 0.1265 µM
  relative viability: 0.781
[8]; first compound 0.4 µM
  relative viability: 0.883
[8]; first compound 1.265 µM
  relative viability: 0.36
[8]; first compound 4 µM
  relative viability: 0.238
[9]; first compound 0.04 µM
  relative viability: 0.813
[9]; first compound 0.1265 µM
  relative viability: 0.817
[9]; first compound 0.4 µM
  relative viability: 0.814
[9]; first compound 1.265 µM
  relative viability: 0.574
[9]; first compound 4 µM
  relative viability: 0.351
[10]; first compound 0.04 µM
  relative viability: 0.811
[10]; first compound 0.1265 µM
  relative viability: 0.844
[10]; first compound 0.4 µM
  relative viability: 0.842
[10]; first compound 1.265 µM
  relative viability: 0.475
[10]; first compound 4 µM
  relative viability: 0.484
[11]; first compound 0.04 µM
  relative viability: 0.95
[11]; first compound 0.4 µM
  relative viability: 0.404
[11]; first compound 1.265 µM
  relative viability: 0.33
[11]; first compound 4 µM
  relative viability: 0.396
[12]; first compound 0.04 µM
  relative viability: 0.962
[12]; first compound 0.1265 µM
  relative viability: 1.26
[12]; first compound 0.4 µM
  relative viability: 0.821
[12]; first compound 1.265 µM
  relative viability: 0.435
[12]; first compound 4 µM
  relative viability: 0.287

## Cc1sc2c(c1C)C(c1ccc(Cl)cc1)=N[C@@H](CC(=O)OC(C)(C)C)c1nnc(C)n1-2 [JQ1] + C[C@@H](Oc1cc(-c2cnn(C3CCNCC3)c2)cnc1N)c1c(Cl)ccc(F)c1Cl [Crizotinib] (partner 1 µM)
[1]; first compound 0.04 µM
  relative viability: 0.766
[1]; first compound 0.1265 µM
  relative viability: 0.521
[1]; first compound 0.4 µM
  relative viability: 0.558
[1]; first compound 1.265 µM
  relative viability: 0.233
[1]; first compound 4 µM
  relative viability: 0.125
[2]; first compound 0.04 µM
  relative viability: 0.705
[2]; first compound 0.1265 µM
  relative viability: 0.25
[2]; first compound 0.4 µM
  relative viability: 0.403
[2]; first compound 1.265 µM
  relative viability: 0.245
[2]; first compound 4 µM
  relative viability: 0.267
[3]; first compound 0.04 µM
  relative viability: 0.737
[3]; first compound 0.1265 µM
  relative viability: 0.546
[3]; first compound 0.4 µM
  relative viability: 0.62
[3]; first compound 1.265 µM
  relative viability: 0.342
[3]; first compound 4 µM
  relative viability: 0.183
[4]; first compound 0.04 µM
  relative viability: 0.214
[4]; first compound 0.1265 µM
  relative viability: 0.187
[4]; first compound 0.4 µM
  relative viability: 0.154
[4]; first compound 1.265 µM
  relative viability: 0.105
[4]; first compound 4 µM
  relative viability: 0.13
[5]; first compound 0.04 µM
  relative viability: 0.672
[5]; first compound 0.1265 µM
  relative viability: 0.3
[5]; first compound 0.4 µM
  relative viability: 0.147
[5]; first compound 1.265 µM
  relative viability: 0.101
[5]; first compound 4 µM
  relative viability: 0.108
[6]; first compound 0.04 µM
  relative viability: 1
[6]; first compound 0.1265 µM
  relative viability: 0.94
[6]; first compound 0.4 µM
  relative viability: 0.847
[6]; first compound 1.265 µM
  relative viability: 0.612
[6]; first compound 4 µM
  relative viability: 0.506
[7]; first compound 0.04 µM
  relative viability: 0.208
[7]; first compound 0.1265 µM
  relative viability: 0.224
[7]; first compound 0.4 µM
  relative viability: 0.212
[7]; first compound 1.265 µM
  relative viability: 0.232
[7]; first compound 4 µM
  relative viability: 0.198
[8]; first compound 0.04 µM
  relative viability: 0.932
[8]; first compound 0.1265 µM
  relative viability: 0.768
[8]; first compound 0.4 µM
  relative viability: 0.707
[8]; first compound 1.265 µM
  relative viability: 0.352
[8]; first compound 4 µM
  relative viability: 0.279
[9]; first compound 0.04 µM
  relative viability: 1.01
[9]; first compound 0.1265 µM
  relative viability: 0.963
[9]; first compound 0.4 µM
  relative viability: 0.768
[9]; first compound 1.265 µM
  relative viability: 0.559
[9]; first compound 4 µM
  relative viability: 0.614
[10]; first compound 0.04 µM
  relative viability: 0.771
[10]; first compound 0.1265 µM
  relative viability: 0.841
[10]; first compound 0.4 µM
  relative viability: 0.669
[10]; first compound 1.265 µM
  relative viability: 0.451
[10]; first compound 4 µM
  relative viability: 0.481
[11]; first compound 0.04 µM
  relative viability: 0.611
[11]; first compound 0.1265 µM
  relative viability: 0.438
[11]; first compound 0.4 µM
  relative viability: 0.464
[11]; first compound 1.265 µM
  relative viability: 0.286
[11]; first compound 4 µM
  relative viability: 0.302
[12]; first compound 0.04 µM
  relative viability: 0.97
[12]; first compound 0.1265 µM
  relative viability: 0.997
[12]; first compound 0.4 µM
  relative viability: 0.578
[12]; first compound 1.265 µM
  relative viability: 0.368
[12]; first compound 4 µM
  relative viability: 0.166

Source: the supplement of paper PMC10307832
